Assay results from article PMC9788324, “In Vitro and In Silico Pharmacological and Cosmeceutical Potential of Ten Essential Oils from Aromatic Medicinal Plants from the Mascarene Islands” (Molecules, 2022).

Key:
[1] = molecular target: T1, porcine pancreatic elastase (Sus scrofa, UniProt P00772); experiment: chromogenic assay, absorbance at […] nm; format: biochemical; settings: read-out: Elastase Inhibition / IC50 (μg/mL) (converted)
T1 construct: gene CELA1; commercial native pancreatic enzyme (Sigma-Aldrich); mature form; docking used PDB 1BRU (recalled as porcine elastase 2), not the assay protein
T1 sequence (P00772 27-266): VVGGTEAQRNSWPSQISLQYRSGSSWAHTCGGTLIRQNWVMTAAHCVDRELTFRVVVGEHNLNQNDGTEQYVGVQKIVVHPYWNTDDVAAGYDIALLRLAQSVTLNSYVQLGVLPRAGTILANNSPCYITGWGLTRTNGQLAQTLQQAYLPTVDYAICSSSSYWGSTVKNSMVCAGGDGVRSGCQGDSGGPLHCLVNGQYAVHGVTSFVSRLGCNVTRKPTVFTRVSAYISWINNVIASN

[2] = molecular target: T2, collagenase from Clostridium histolyticum (Type IV); experiment: fluorescence assay, DQ gelatin-fluorescein ([…] nm); format: biochemical, Hathewaya histolytica; settings: DQ gelatin substrate, 0.2 U/mL enzyme, 15 min preincubation at 37 °C; positive control, printed as '1,1 Phenanthroline' in table
T2 construct: gene colG; native commercial collagenase from EnzChek Gelatinase/Collagenase Assay Kit; ColG/ColH not distinguished; docking used PDB 2Y6I, not the assay protein

Row | IC50 [1] | SMILES | Collagenase Inhibition / IC50 (mg/mL) [2]
1 | 22.1 µM | C[C@H]1[C@H](C)CC[C@]2(C(=O)O)CC[C@]3(C)C(=CC[C@@H]4[C@@]5(C)CC[C@H](O)C(C)(C)[C@@H]5CC[C@]43C)[C@H]12 [Ursolic acid] | 
2 |  | c1cnc2c(c1)ccc1cccnc12 [1,10-phenanthroline] | 4.20 × 10^−3 ± 0.00 mg/mL
